The subject of data set [1] is gefitinib-resistant kinases. Also noted: method as in Carter et al, 2005; Kwak et al, 2005. To be noted: preclinical studies, ref Carter et al, 2005, Kwak et al; cited from earlier work.
In another data set the test system is EGFR phosphorylation. Also noted: method as in Torrance et al, 2000. Conditions: xenograft model; ref Torrance et al, 2000; cited from earlier work.
Details of data set [2]: method as in Torrance et al, 2000. To be noted: ref Torrance et al, 2000; cited from earlier work.
The test system of another data set is epidermal keratinocytes. In words: Pharmacodynamics in paired skin biopsies (immunohistochemistry). Type of data set: in vivo, human. Conditions: on therapy day 14 cycle 1, all dose levels pooled, 36 paired biopsies; pretreatment 14.0±4.5%; P<0.0001.
Data set [3] has as its system advanced solid tumours. The data set is described as follows: Antitumour activity (RECIST). Type of data set: in vivo, human. On the procedure:
(§1) Prior to therapy, medical history taking and physical examination were performed. A complete blood cell count (CBC), white blood cell (WBC) differential and serum biochemistry were performed, as were urinalysis, electrocardiogram, MUGA scanning and, chest X-ray. Weekly evaluations during cycles 1 and 2 and every other week thereafter included physical examination, AE assessment, CBC, WBC differential and serum chemistry including renal function. Tumour measurements and MUGA scanning were performed every other cycle. Response was assessed using RECIST ([Therasse et al, 2000]).

Data set [4] can be described thus: Phase I safety, DLT and MTD, OD 14 days on / 14 days off. In kind it is in vivo. On the procedure:
Tablets were taken 1 h before breakfast. A cycle was defined as 14 days on treatment followed by 14 days off medication. […] The starting dose corresponded with one-fifth of the toxic dose low in rats, the most sensitive species. The dose for successive cohorts was doubled until observation of drug-related AE grade ⩾2 according to common toxicity criteria v3.0 in one or more patients in the first cycle. Thereafter escalation steps were ⩽50%. Should DLT be observed in one out of six patients and dose escalation continued, escalation steps were ⩽35%. Initially, three patients were treated per dose level. If one patient experienced drug-related DLT, three additional patients were treated. When no further patient experienced DLT, the dose was escalated. When ⩾2/6 patients experienced DLT, three additional patients were treated 1 dose tier below unless six had already been treated there.
Maximum tolerated dose was defined as the highest dose with ⩽1/6 patients experiencing DLT during cycle 1. Dose-limiting toxicity was defined as grade 3 or 4 nonhaematological toxicity except untreated nausea, vomiting, or diarrhoea; grade 4 haematological toxicity; grade 3 diarrhoea, nausea, or vomiting despite supportive care; need for loperamide for ⩾7 days to treat or prevent grade ⩾2 diarrhoea; need for continuous administration of 5HT-3 antagonists or dexamethasone to treat or prevent grade ⩾2 nausea or vomiting; occurrence of grade ⩾2 cardiac left ventricular function or renal toxicity. In the absence of DLT or disease progression, patients received six cycles and were allowed to continue in an extension protocol. Intrapatient dose escalation was not allowed. The study was approved by local Ethics Committees, and all patients provided written informed consent.
as §1

The conditions of data set [5]: minipig, in vivo; cited from earlier work.
The test system of data set [6] is A431, MDA-MB-453, NCI-N87 gastric and SKOV-3 ovarian xenografts. More on the design: method as in Boehringer-Ingelheim, data on file. To be noted: oral, ref Boehringer-Ingelheim, data on file, cited from earlier work.
A short description of data set [7]: Plasma pharmacokinetics in patients (HPLC-MS/MS, noncompartmental). Conditions: for CL/F / Vd/F / half-life / AUC(0-t) / Cmax / Tmax: human, plasma, oral.
Data set [8] has as its target vascular endothelial growth factor 2. Conditions: at concentrations 100- to 1000-fold higher; ref Boehringer-Ingelheim, data on file; cited from earlier work.
The next data set addresses C-SRC. Conditions: at concentrations 100- to 1000-fold higher; ref Boehringer-Ingelheim, data on file; cited from earlier work.
In data set [9] the test system is advanced solid tumours. Conditions: cited from earlier work.

The CL/F is the apparent clearance, not corrected for the fraction that reaches the circulation. As usually defined, the Vd/F is the volume of distribution divided by bioavailability. As a reminder, the half-life is the time needed for the level to fall by half in the phase considered. By AUC(0-t) is commonly meant the area under the concentration-time curve up to a stated or last time point. Low readings indicate low exposure, high ones high exposure. By Cmax is commonly meant the highest concentration seen after dosing. Usually Tmax stands for the time at which the peak concentration occurs.

Turning to `CCOc1cc2ncc(C#N)c(Nc3ccc(OCc4ccccn4)c(Cl)c3)c2cc1NC(=O)/C=C/CN(C)C` [HKI-272], in [1], the “inhibition of gefitinib-resistant kinases” value is “inhibition”.
With `C=CC(=O)Nc1cc2c(Nc3ccc(F)c(Cl)c3)ncnc2cc1OCCCN1CCOCC1` [CI-1033], in data set [1], the “inhibition of gefitinib-resistant kinases” value is recorded as “inhibition”.
With `CCOc1cc2ncc(C#N)c(Nc3ccc(F)c(Cl)c3)c2cc1NC(=O)/C=C/CN(C)C` [EKB-569], the “inhibition of gefitinib-resistant kinases” value in data set [1] is “inhibition”. In the data set with EGFR phosphorylation, the “duration of inhibition of EGFR phosphorylation” value is recorded as greater than 24 h. Also, the plasma half-life in data set [2] is 2 h.
With `CN(C)C/C=C/C(=O)Nc1cc2c(Nc3ccc(F)c(Cl)c3)ncnc2cc1O[C@H]1CCOC1` [BIBW 2992], the “percentage Ki-67-positive cells (means±s.d.)” value in the data set on epidermal keratinocytes amounted to 7.9±4.5%. Moreover, the objective response result in the data set on advanced solid tumours [3] (38 patients, 10–100 mg) was “No partial or complete responses”. In the data set on advanced solid tumours [3] (all treated at doses of ⩾45 mg), the “patients with minor tumour regressions” value was “Eight”. Also, the “median number of cycles in patients with stable disease” value with advanced solid tumours [3] (patients with stable disease ⩾4 cycles) is given as 6 (range 5–9) cycles. Further, the “patients with stable disease lasting ⩾4 cycles” value in the data set on advanced solid tumours [3] (various tumour types) is reported as “seven”. In addition, in data set [4] (OD 14 days on, 14 days off), the Maximum tolerated dose worked out at 70 mg. In [4] (OD, 14-day on, 14-day off schedule), the “recommended dose (phase 2)” value stood at 70 mg. Moreover, in data set [4] (human, in vivo), the incidence of diarrhoea turned out to be 84%; the “incidence of gastrointestinal AE” value is recorded as 92%; the onset of diarrhoea is no more than 7 days; the “overall incidence of rash, acne and dry skin” value came to 95%. Also, in data set [4] (human, in vivo), the “patients with grade 1 anemia” value amounted to 6 patients; the “patients with mild fatigue” value came to 24 patients; the “patients with mild gastrointestinal AE (diarrhoea, nausea, vomiting)” value is reported as 35 patients; the “patients with self-limiting epistaxis” value is on record as 20 patients. In addition, in data set [4] (in vivo), the “DLT observed in cycle 1, initial 70 mg cohort” value is “one”; the “patients with LVEF reduction” value is “Two”; the “patients with grade 1 thrombocytopaenia” value was “two”; the “patients with grade 2 ALT” value is on record as “three”. Also, in data set [4] (in vivo), the “patients with grade 2 AST” value is on record as “four”, the “patients with grade 2 alkaline phosphatase” value is “five” and the “patients with grade 2 bilirubin” value is “two”. In addition, the “organs in which toxicity occurred” value in data set [5] is listed as “gastrointestinal tract”. In [6] (mice with A431, MDA-MB-453, NCI-N87 gastric, SKOV-3 ovarian models), the tumour regression result is given as “induced tumour regression”. Further, the “plasma concentrations at which tumour regression was induced” value in data set [6] (xenograft models in mice) was 80 to 280 nM. Further, the “time to reach steady state” value in [7] (OD dosing) is no more than 8 days. In [7], this compound yielded a CL/F of 383 to 1390 mL/min, a Vd/F of 1250 to 4760 L and a half-life of 28 to 43 h. In data set [7] (10 mg), the AUC(0-t) was determined as 199 ng·h/mL, the CL/F came to 839 mL/min, the maximum concentration (Cmax) turned out to be 14.1 ng/mL and the Tmax amounted to 2.98 h. In [7] (10 mg), the Vd/F is 2610 L and the half-life is 35.9 h. In data set [7] (20 mg), the AUC(0-t) came out at 241 ng·h/mL, the CL/F was 1390 mL/min, the Cmax was found to be 16.2 ng/mL and the Tmax was 4 h. In [7] (20 mg), the Vd/F amounted to 4760 L and the half-life was 39.7 h. In addition, in data set [7] (30 mg), the AUC(0-t) was 1310 ng·h/mL, the apparent clearance CL/F came out at 383 mL/min, the peak level (Cmax) was 111 ng/mL and the Tmax turned out to be 0.95 h. In [7] (30 mg), this compound showed a Vd/F of 1250 L and a half-life of 37.7 h. In addition, in data set [7] (45 mg), the AUC(0-t) stood at 840 ng·h/mL, the CL/F was 893 mL/min, the highest concentration (Cmax) came to 68.4 ng/mL and the Tmax came to 3 h. In data set [7] (45 mg), this compound had a Vd/F of 3350 L and a half-life of 43.4 h. In data set [7] (70 mg), the area under the curve AUC(0-t) came to 2620 ng·h/mL, the apparent clearance CL/F was found to be 445 mL/min, the highest level (Cmax) was 180 ng/mL and the Tmax stood at 2 h. In [7] (70 mg), this compound showed a Vd/F of 1530 L and a half-life of 39.6 h. Further, in [7] (85 mg), the AUC(0-t) is 2340 ng·h/mL, the CL/F was determined as 604 mL/min, the Cmax turned out to be 163 ng/mL and the Tmax was determined as 2 h. In [7] (85 mg), this compound showed a Vd/F of 1610 L and a half-life of 30.8 h. Besides, in data set [7] (100 mg), the exposure AUC(0-t) amounted to 2750 ng·h/mL, the CL/F was found to be 606 mL/min, the peak level (Cmax) was 234 ng/mL and the Tmax amounted to 1 h. In data set [7] (100 mg), the Vd/F was 1500 L and the half-life was 28.6 h. In data set [8], the kinase inhibition result is “not inhibited”. Also, the kinase inhibition entry at C-SRC is “not inhibited”. Moreover, in the data set on advanced solid tumours [9] (adenocarcinoma of the lung, ref Shaw et al, 2006), the “patients with partial tumour responses” value is listed as “two”. Besides, in the data set on advanced solid tumours [9] (preliminary data from ⩾120 patients, ref Agus et al, 2006, Shaw et al), the “LVEF changes in additional trials” value is “not indicated significant LVEF changes”.

The record behind these values is article PMC2359721 (British Journal of Cancer, 2007).
